Results from ChEMBL document CHEMBL2169792, “Synthesis of new 4-thiazolidinone-, pyrazoline-, and isatin-based conjugates with promising antitumor activity” (J Med Chem, 2012).
The source made the active and inactive calls. The calls are words filed in the database; no cut-off is given here.

Experiments:
SK-MEL-5 [1] = assay: Cytotoxicity against human SK-MEL-5 cells assessed as cell growth at 10 uM after 48 hrs by SRB assay; assay type: functional; conditions: SK-MEL-5, 48 h, read-out: Activity
OVCAR-8 = assay: Cytotoxicity against human OVCAR8 cells after 48 hrs by SRB assay; assay type: functional; conditions: OVCAR-8, 48 h
786-0 = assay: Cytotoxicity against human 786-0 cells after 48 hrs by SRB assay; assay type: functional; conditions: 786-0, 48 h
T47D = assay: Cytotoxicity against human T47D cells after 48 hrs by SRB assay; assay type: functional
MDA-MB-468 = assay: Cytotoxicity against human MDA-MB-468 cells after 48 hrs by SRB assay; assay type: functional; conditions: MDA-MB-468, 48 h
UO-31 = assay: Cytotoxicity against human UO31 cells after 48 hrs by SRB assay; assay type: functional; conditions: UO-31, 48 h
UACC-62 = assay: Cytotoxicity against human UACC62 cells after 48 hrs by SRB assay; assay type: functional; conditions: UACC-62, 48 h
NCI-H226 = assay: Cytotoxicity against human NCI-H226 cells after 48 hrs by SRB assay; assay type: functional; conditions: NCI-H226, 48 h
[2] = Cytotoxicity against human breast cancer cells after 48 hrs by SRB assay; assay type: functional; conditions: Cancer cell lines
SNB-75 = assay: Cytotoxicity against human SNB75 cells after 48 hrs by SRB assay; assay type: functional; conditions: SNB-75, 48 h
NCI-H23 = assay: Cytotoxicity against human NCI-H23 cells after 48 hrs by SRB assay; assay type: functional; conditions: NCI-H23, 48 h
OVCAR-4 = assay: Cytotoxicity against human OVCAR4 cells after 48 hrs by SRB assay; assay type: functional; conditions: OVCAR-4, 48 h
LOX IMVI = assay: Cytotoxicity against human LOXIMVI cells after 48 hrs by SRB assay; assay type: functional
Mus musculus = assay: Antitumor activity in ip dosed athymic nude mouse hollow fiber model assessed as reduction of viable cell mass; assay type: functional, organism-based
NCI-H460 = assay: Cytotoxicity against human NCI-H460 cells after 48 hrs by SRB assay; assay type: functional; conditions: NCI-H460, 48 h
SNB-19 = assay: Cytotoxicity against human SNB19 cells after 48 hrs by SRB assay; assay type: functional; conditions: SNB-19, 48 h
OVCAR-5 = assay: Cytotoxicity against human OVCAR5 cells after 48 hrs by SRB assay; assay type: functional; conditions: OVCAR-5, 48 h
[3] = Cytotoxicity against human melanoma cells after 48 hrs by SRB assay; assay type: functional; conditions: Melanoma cell
[4] = Cytotoxicity against human non-small cell lung cancer cells after 48 hrs by SRB assay; assay type: functional; conditions: Cancer cell lines
HCT-116 = assay: Cytotoxicity against human HCT116 cells after 48 hrs by SRB assay; assay type: functional; conditions: HCT-116, 48 h
SK-MEL-2 = assay: Cytotoxicity against human SK-MEL-2 cells after 48 hrs by SRB assay; assay type: functional; conditions: SK-MEL-2, 48 h, read-out: LC50 (the source's name)
MDA-MB-231 = assay: Cytotoxicity against human MDA-MB-231 cells after 48 hrs by SRB assay; assay type: functional; conditions: MDA-MB-231, 48 h
IGROV-1 = assay: Cytotoxicity against human IGROV1 cells after 48 hrs by SRB assay; assay type: functional; conditions: IGROV-1, 48 h
[5] = Cytotoxicity against human prostate cancer cells after 48 hrs by SRB assay; assay type: functional; conditions: Cancer cell lines
[6] = Cytotoxicity against human CNS cancer cells after 48 hrs by SRB assay; assay type: functional; conditions: Cancer cell lines
Hs-578T = assay: Cytotoxicity against human Hs578T cells after 48 hrs by SRB assay; assay type: functional
DU-145 = assay: Cytotoxicity against human DU145 cells after 48 hrs by SRB assay; assay type: functional; conditions: DU-145, 48 h
SR = assay: Cytotoxicity against human SR cells after 48 hrs by SRB assay; assay type: functional
SK-OV-3 = assay: Cytotoxicity against human SKOV3 cells after 48 hrs by SRB assay; assay type: functional; conditions: SK-OV-3, 48 h
SF-539 = assay: Cytotoxicity against human SF539 cells after 48 hrs by SRB assay; assay type: functional; conditions: SF-539, 48 h
HCC 2998 = assay: Cytotoxicity against human HCC2998 cells after 48 hrs by SRB assay; assay type: functional; conditions: HCC 2998, 48 h
NCI/ADR-RES = assay: Cytotoxicity against human NCI/ADR-RES cells after 48 hrs by SRB assay; assay type: functional
NCI-H322M = assay: Cytotoxicity against human NCI-H322M cells after 48 hrs by SRB assay; assay type: functional
KM12 = assay: Cytotoxicity against human KM12 cells after 48 hrs by SRB assay; assay type: functional; conditions: KM12, 48 h
SK-MEL-5 [7] = assay: Cytotoxicity against human SK-MEL-5 cells after 48 hrs by SRB assay; assay type: functional; conditions: SK-MEL-5, 48 h, read-out: LC50 (the source's name)
Malme-3M = assay: Cytotoxicity against human MALME-3M cells after 48 hrs by SRB assay; assay type: functional
[8] = read-out: LC50 (the source's name)

Which results are given for `COc1ccc(C2CC(c3ccc4ccccc4c3)=NN2C2=NC(=O)/C(=C3\C(=O)Nc4ccc(Br)cc43)S2)cc1` (configuration not stated)?
growth at 10 µM (SK-MEL-5 [1]): -59.8%; GI50 (OVCAR-8): 32 nM; TGI (OVCAR-8): 176 nM; CC50 (OVCAR-8; [8]): 24.1 µM; GI50 (786-0): 19.4 nM; TGI (786-0): 38.7 nM; CC50 (786-0; [8]): > 77.2 nM; GI50 (T47D): 23.6 nM; TGI (T47D): 61 nM; GI50 (MDA-MB-468): 22.3 nM; TGI (MDA-MB-468): 62.2 nM; CC50 (MDA-MB-468; [8]): 190 nM; GI50 (UO-31): 57.8 nM; GI50 (UACC-62): 54.7 nM; TGI (UACC-62): 261 nM; CC50 (UACC-62; [8]): 1190 nM; GI50 (NCI-H226): 21.5 nM; TGI (NCI-H226): 173 nM; CC50 (NCI-H226; [8]): 586 nM; GI50 [2]: 61 nM; LC50 (concentration causing 50% net cell kill) [2]: 2650 nM; TGI [2]: 990 nM; GI50 (SNB-75): 15.9 nM; TGI (SNB-75): 34.3 nM; CC50 (SNB-75; [8]): > 69.8 nM; GI50 (NCI-H23): 24.6 nM; TGI (NCI-H23): 56.7 nM; CC50 (NCI-H23; [8]): 291 nM; GI50 (OVCAR-4): 32.6 nM; TGI (OVCAR-4): > 111 nM; CC50 (OVCAR-4; [8]): > 100 µM; GI50 (LOX IMVI): 24.3 nM; TGI (LOX IMVI): 58.9 nM; CC50 (LOX IMVI; [8]): 249 nM; Activity (Mus musculus): inactive; GI50 (NCI-H460): 33.1 nM; TGI (NCI-H460): 112 nM; CC50 (NCI-H460; [8]): 5.45 µM; GI50 (SNB-19): 38.5 nM; TGI (SNB-19): 411 nM; CC50 (SNB-19; [8]): 8.98 µM; GI50 (OVCAR-5): 33.6 nM; TGI (OVCAR-5): 131 nM; CC50 (OVCAR-5; [8]): 2110 nM; GI50 [3]: 69 nM; TGI [3]: 190 nM; CC50 [3, 8]: 3.52 µM; GI50 [4]: 54 nM; TGI [4]: 220 nM; CC50 [4, 8]: 41.5 µM; GI50 (HCT-116): 18 nM; TGI (HCT-116): 33.5 nM; CC50 (HCT-116; [8]): > 62.4 nM; CC50 (SK-MEL-2): 882 nM; GI50 (MDA-MB-231): 14.5 nM; TGI (MDA-MB-231): 62.7 nM; CC50 (MDA-MB-231; [8]): 349 nM; GI50 (IGROV-1): 49.8 nM; TGI (IGROV-1): 451 nM; CC50 (IGROV-1; [8]): > 100 µM; GI50 [5]: 59 nM; LC50 [5]: 13.8 µM; TGI [5]: 510 nM; GI50 [6]: 46 nM; LC50 (concentration giving 50% net cell kill) [6]: 3.42 µM; TGI [6]: 210 nM; GI50 (Hs-578T): 64.4 nM; TGI (Hs-578T): > 1030 nM; CC50 (Hs-578T; [8]): > 100 µM; GI50 (DU-145): 39.3 nM; TGI (DU-145): 752 nM; CC50 (DU-145; [8]): 25.5 µM; GI50 (SR): 28.9 nM; TGI (SR): 130 nM; CC50 (SR; [8]): > 100 µM; GI50 (SK-OV-3): 33 nM; TGI (SK-OV-3): > 114 nM; CC50 (SK-OV-3; [8]): > 2840 nM; GI50 (SF-539): 23.1 nM; TGI (SF-539): 54.2 nM; CC50 (SF-539; [8]): 296 nM; GI50 (HCC 2998): 25.2 nM; TGI (HCC 2998): 65.8 nM; CC50 (HCC 2998; [8]): 272 nM; GI50 (NCI/ADR-RES): 675 nM; TGI (NCI/ADR-RES): > 100 µM; CC50 (NCI/ADR-RES; [8]): > 100 µM; GI50 (NCI-H322M): 36 nM; TGI (NCI-H322M): 560 nM; CC50 (NCI-H322M; [8]): > 64.1 µM; GI50 (KM12): 23.1 nM; TGI (KM12): 53.5 nM; CC50 (KM12; [8]): 231 nM; CC50 (SK-MEL-5 [7]): 341 nM; GI50 (Malme-3M): 27.7 nM; TGI (Malme-3M): 72.9 nM; CC50 (Malme-3M; [8]): 640 nM
